Laboratory results: patent US20140323504A1, “Pyrazolo[4,3-c]Pyridine Derivatives As Kinase Inhibitors” (Cellzome Limited, priority 2011, published 2014)
Several values for one entry are separate records, joined by “and”; a condition that tells them apart may be missing. Equal values may be shown once.

Key:
JAK1 = molecular target: T1, JAK1 (Homo sapiens, UniProt P23458); assay: Kinobeads assay with antibody detection, JAK1; type: binding; conditions: mixed Molt4/Ramos lysate, read-out: JAK1 inhibition value (IC50)
T1 construct: endogenous in cells; host or cells: mixed Molt4/Ramos cell lysate (1:2)
Experimental: (§1) The compounds of the present invention as described in the previous examples were tested in a Kinobeads™ assay as described for ZAP-70 (WO-A 2007/137867). Briefly, test compounds (at various concentrations) and the affinity matrix with the immobilized aminopyrido-pyrimidine ligand 24 were added to cell lysate aliquots and allowed to bind to the proteins in the lysate sample. After the incubation time the beads with captured proteins were separated from the lysate. Bound proteins were then eluted and the presence of JAK1; JAK2, JAK3 and TYK2 was detected and quantified using specific antibodies in a dot blot procedure and the Odyssey infrared detection system. Dose response curves for individual kinases were generated and IC50 values calculated. Kinobeads™ assays for ZAP-70 (WO-A 2007/137867) and for kinase selectivity profiling (WO-A 2006/134056) have been previously described.
(§2) 5×DP buffer: 250 mM Tris-HCl pH 7.4, 25% Glycerol, 7.5 mM MgCl2, 750 mM NaCl, 5 mM Na3VO4; filter the 5×DP buffer through a 0.22 μm filter and store in aliquot at −80° C. The 5×DP buffer is diluted with H2O to 1×DP buffer containing 1 mM DTT and 25 mM NaF.
(§3) Stock solutions of test compounds were prepared in DMSO. In a 96 well plate 30 μL solution of diluted test compounds at 5 mM in DMSO were prepared. Starting with this solution a 1:3 dilution series (9 steps) was prepared. For control experiments (no test compound) a buffer containing 2% DMSO was used.
(§4) Molt4 cells (ATCC catalogue number CRL-1582) and Ramos cells (ATCC catalogue number CRL-1596) were grown in 1 L Spinner flasks (Integra Biosciences, #182101) in suspension in RPMI 1640 medium (Invitrogen, #21875-034) supplemented with 10% Fetal Bovine Serum (Invitrogen) at a density between 0.15×10^6 and 1.2×10^6 cells/mL. Cells were harvested by centrifugation, washed once with 1×PBS buffer (Invitrogen, #14190-094) and cell pellets were frozen in liquid nitrogen and subsequently stored at −80° C. Cells were homogenized in a Potter S homogenizer in lysis buffer: 50 mM Tris-HCl, 0.8% NP40, 5% glycerol, 150 mM NaCl, 1.5 mM MgCl2, 25 mM NaF, 1 mM sodium vanadate, 1 mM DTT, pH 7.5. One complete EDTA-free tablet (protease inhibitor cocktail, Roche Diagnostics, 1873580) per 25 mL buffer was added. The material was dounced 10 times using a mechanized POTTER S, transferred to 50 mL falcon tubes, incubated for 30 minutes on ice and spun down for 10 minutes at 20,000 g at 4° C. (10,000 rpm in Sorvall SLA600, precooled). The supernatant was transferred to an ultracentrifuge (UZ)-polycarbonate tube (Beckmann, 355654) and spun for 1 hour at 100.000 g at 4° C. (33.500 rpm in Ti50.2, precooled). The supernatant was transferred again to a fresh 50 mL falcon tube, the protein concentration was determined by a Bradford assay (BioRad) and samples containing 50 mg of protein per aliquot were prepared. The samples were immediately used for experiments or frozen in liquid nitrogen and stored frozen at −80° C.
(§5) Cell lysate (approximately 50 mg protein per plate) was thawed in a water bath at room temperature and then stored on ice. To the thawed cell lysate 1×DP 0.8% NP40 buffer containing protease inhibitors (1 tablet for 25 mL buffer; EDTA-free protease inhibitor cocktail; Roche. Diagnostics 1873580) was added in order to reach a final protein concentration of 10 mg/mL total protein. The diluted cell lysate was stored on ice. Mixed Molt4Ramos lysate was prepared by combining one volume of Molt4 lysate and two volumes of Ramos lysate (ratio 1:2).
(§6) Plates were sealed and incubated for 3 hours in a cold room on a plate shaker (Heidolph tiramax 1000) at 750 rpm. Afterwards the plate was washed 3 times with 230 μL washing buffer (1×DP 0.4% NP40). The filter plate was placed on top of a collection plate (Greiner bio-one, PP-microplate 96 well V-shape, 65120) and the beads were then eluted with 20 μL of sample buffer (100 mM Tris, pH 7.4, 4% SDS, 0.00025% bromophenol blue, 20% glycerol, 50 mM DTT). […]

JAK2 = molecular target: T2, JAK2 (Homo sapiens, UniProt O60674); assay: Kinobeads assay with antibody detection, JAK2; type: binding; conditions: mixed Molt4/Ramos lysate, read-out: JAK2 inhibition value (IC50)
T2 construct: endogenous in cells; host or cells: mixed Molt4/Ramos cell lysate (1:2)
Experimental: as §1, §2, §3, §4, §5, §6

Tyk2 = molecular target: T3, Tyk2 (Homo sapiens, UniProt P29597); assay: Kinobeads assay with antibody detection, TYK2; type: binding; conditions: mixed Molt4/Ramos lysate, read-out: Tyk2 inhibition value (IC50)
T3 construct: endogenous in cells; host or cells: mixed Molt4/Ramos cell lysate (1:2)
Experimental: as §1, §2, §3, §4, §5, §6

JAK3 = molecular target: T4, JAK3 (Homo sapiens, UniProt P52333); assay: Kinobeads assay with antibody detection, JAK3; type: binding; design: endogenous in cells; host or cells: mixed Molt4/Ramos cell lysate (1:2); conditions: mixed Molt4/Ramos lysate, read-out: JAK3 inhibition value (IC50)
T4 sequence (P52333 1-1124): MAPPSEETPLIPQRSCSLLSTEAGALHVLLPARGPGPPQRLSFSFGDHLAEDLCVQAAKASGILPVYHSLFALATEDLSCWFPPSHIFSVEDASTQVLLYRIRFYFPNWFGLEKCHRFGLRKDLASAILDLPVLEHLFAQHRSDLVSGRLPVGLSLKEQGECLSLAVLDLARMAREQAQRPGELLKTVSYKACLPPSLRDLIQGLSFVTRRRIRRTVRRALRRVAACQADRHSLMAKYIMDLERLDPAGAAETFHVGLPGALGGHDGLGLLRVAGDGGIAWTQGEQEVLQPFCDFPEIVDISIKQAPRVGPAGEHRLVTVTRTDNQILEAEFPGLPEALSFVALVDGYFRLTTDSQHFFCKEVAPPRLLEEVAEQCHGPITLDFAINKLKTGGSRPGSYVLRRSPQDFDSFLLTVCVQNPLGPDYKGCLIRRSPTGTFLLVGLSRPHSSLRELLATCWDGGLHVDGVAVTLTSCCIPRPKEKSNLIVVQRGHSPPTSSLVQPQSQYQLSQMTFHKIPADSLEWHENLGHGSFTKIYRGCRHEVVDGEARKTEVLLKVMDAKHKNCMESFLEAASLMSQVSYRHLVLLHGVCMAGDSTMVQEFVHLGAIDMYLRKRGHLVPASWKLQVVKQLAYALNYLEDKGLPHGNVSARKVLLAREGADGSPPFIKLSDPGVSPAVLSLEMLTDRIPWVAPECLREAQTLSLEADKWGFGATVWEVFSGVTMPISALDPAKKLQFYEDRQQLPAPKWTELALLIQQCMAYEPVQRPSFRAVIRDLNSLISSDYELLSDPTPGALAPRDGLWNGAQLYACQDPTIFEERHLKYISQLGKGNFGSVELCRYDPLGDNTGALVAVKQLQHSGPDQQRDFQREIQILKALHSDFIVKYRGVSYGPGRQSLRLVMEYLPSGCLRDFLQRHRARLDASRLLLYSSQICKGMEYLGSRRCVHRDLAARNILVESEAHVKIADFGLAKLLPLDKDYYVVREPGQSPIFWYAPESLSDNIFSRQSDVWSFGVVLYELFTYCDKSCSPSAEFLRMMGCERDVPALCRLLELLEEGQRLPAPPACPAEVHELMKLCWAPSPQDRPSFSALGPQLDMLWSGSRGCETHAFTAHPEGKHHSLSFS
Experimental: as §1, §2, §3, §4, §5, §6

[1] = system: NOD mouse model of type I diabetes; conditions: cited from earlier work
GVHD = conditions: Cetkovic-Cvrlje and Ucken, 2004; cited from earlier work
[2] = system: STAT5 phosphorylation in IL-2 stimulated YT cells; assay: Cell assay with washout of compounds (pSTAT5, YT cells, MSD); type: cell-based, human
Experimental: This time course experiment allows determination as to whether the pharmacological effect of the tested compounds persists over time even after the compound is removed from the cell samples.
Human YT cells were grown as described above. Cells were harvested by centrifugation and resuspended in RPMI0.5% heat-inactivated FBS. 3×10^5 cells were seeded in 60 μl per well in a round-bottomed 96 well plate (BD-Falcon, 353077).
Test compounds were dissolved in DMSO and a 1:3 dilution series (9 steps) was prepared. To generate a dose response curve, 30 μl of fourfold concentrated compound in 4% DMSO/RPMI/0.5% FBS were added to each cell sample in the 96 well plate resulting in a final DMSO concentration of 1% DMSO. Cells were incubated for one hour in a humidified incubator (37° C., 5% CO2). After incubation cells were washed twice by centrifugation and replacement of media (RPMI/0.5% FBS), with the exception of the time 0 plate. Washed cells were incubated for 30 min, 1, 2 and 4 hours in a humidified incubator (37° C., 5% CO2) prior to stimulation with IL-2. To each well 30 μl of a fourfold concentrated IL-2 solution (Recombinant human IL-2, Peprotech 200-02; 120 nM solution in RPMI) was added and incubated for 30 minutes at room temperature. Cells were lysed by adding 30 μl of 5× lysis buffer (MSD lysis buffer) and incubated for 10 minutes at 4° C. with gentle shaking.
The effect of compounds on STATS phosphorylation was determined in lysates using the MSD MULTI-SPOT® 96 4-spot phosphor-STAT5a,b whole cell lysatc kit (MesoScale Discovery, K150IGD-3) according to the manufacturer's protocol. Data were analysed in BioAssay using the nonlinear regression for a sigmoidal dose-response with a variable slope and IC50 values were determined.

[3] = system: animal model of organ transplantation; conditions: Changelian et al., 2003; cited from earlier work
[4] = IL-2 stimulated YT cells, 0 min (no wash)

T3 sequence (P29597 whole entry): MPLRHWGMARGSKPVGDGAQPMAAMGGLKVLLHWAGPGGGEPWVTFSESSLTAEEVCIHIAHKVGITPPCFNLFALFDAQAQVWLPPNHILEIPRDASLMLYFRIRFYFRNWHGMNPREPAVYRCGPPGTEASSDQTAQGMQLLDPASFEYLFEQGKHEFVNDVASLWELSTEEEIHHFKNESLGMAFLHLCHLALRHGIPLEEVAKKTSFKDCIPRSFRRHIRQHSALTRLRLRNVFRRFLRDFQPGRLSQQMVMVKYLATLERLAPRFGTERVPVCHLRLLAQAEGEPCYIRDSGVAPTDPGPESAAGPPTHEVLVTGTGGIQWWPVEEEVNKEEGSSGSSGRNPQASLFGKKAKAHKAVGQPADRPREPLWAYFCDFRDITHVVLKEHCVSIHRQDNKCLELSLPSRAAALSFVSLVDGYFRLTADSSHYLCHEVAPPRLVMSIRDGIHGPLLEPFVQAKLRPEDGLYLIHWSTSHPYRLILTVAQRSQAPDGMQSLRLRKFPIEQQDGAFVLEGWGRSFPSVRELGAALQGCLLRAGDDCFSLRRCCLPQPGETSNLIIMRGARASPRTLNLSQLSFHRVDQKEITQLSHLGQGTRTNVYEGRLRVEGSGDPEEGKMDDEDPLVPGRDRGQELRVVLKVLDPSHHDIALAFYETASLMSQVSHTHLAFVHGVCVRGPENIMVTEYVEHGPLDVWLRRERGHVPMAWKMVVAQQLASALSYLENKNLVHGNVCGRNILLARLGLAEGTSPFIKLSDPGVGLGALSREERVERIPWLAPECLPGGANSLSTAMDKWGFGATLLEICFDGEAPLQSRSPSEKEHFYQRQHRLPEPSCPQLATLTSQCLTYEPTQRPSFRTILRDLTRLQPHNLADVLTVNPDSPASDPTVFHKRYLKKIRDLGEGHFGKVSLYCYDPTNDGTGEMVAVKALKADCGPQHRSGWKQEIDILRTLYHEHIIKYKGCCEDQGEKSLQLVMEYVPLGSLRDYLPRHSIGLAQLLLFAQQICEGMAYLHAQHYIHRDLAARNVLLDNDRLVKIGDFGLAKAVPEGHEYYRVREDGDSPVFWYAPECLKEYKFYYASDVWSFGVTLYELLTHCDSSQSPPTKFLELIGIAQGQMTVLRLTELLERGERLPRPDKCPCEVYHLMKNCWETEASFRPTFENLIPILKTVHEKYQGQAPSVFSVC
T2 sequence (O60674 whole entry): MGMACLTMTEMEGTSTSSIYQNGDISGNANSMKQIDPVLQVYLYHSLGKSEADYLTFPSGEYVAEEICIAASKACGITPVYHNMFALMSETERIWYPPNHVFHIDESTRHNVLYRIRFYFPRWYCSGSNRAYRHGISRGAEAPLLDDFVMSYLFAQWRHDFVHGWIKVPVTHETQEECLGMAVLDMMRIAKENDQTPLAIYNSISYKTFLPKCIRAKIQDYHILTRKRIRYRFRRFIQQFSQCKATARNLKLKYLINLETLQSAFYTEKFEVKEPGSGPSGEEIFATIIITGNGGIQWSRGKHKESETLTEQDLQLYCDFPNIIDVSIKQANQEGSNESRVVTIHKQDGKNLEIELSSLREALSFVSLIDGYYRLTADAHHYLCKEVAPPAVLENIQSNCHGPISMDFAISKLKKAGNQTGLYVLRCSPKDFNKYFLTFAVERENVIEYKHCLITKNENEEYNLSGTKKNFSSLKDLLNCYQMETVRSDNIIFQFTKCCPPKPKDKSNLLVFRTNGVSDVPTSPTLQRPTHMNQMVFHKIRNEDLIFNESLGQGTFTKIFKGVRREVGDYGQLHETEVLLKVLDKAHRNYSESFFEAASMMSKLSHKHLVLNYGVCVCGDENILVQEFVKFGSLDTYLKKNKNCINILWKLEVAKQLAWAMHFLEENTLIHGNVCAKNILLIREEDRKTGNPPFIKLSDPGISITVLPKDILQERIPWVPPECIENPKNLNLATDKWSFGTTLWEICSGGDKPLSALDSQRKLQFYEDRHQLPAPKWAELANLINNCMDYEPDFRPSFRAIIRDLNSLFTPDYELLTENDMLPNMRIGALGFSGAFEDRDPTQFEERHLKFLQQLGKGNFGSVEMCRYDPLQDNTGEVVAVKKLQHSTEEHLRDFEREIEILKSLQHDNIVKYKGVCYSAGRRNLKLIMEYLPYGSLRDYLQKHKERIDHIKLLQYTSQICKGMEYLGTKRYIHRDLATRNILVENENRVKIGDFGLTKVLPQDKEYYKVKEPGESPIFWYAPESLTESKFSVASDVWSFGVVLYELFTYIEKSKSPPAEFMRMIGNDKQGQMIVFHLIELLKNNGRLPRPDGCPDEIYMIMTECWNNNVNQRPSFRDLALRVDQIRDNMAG
T1 sequence (P23458 whole entry): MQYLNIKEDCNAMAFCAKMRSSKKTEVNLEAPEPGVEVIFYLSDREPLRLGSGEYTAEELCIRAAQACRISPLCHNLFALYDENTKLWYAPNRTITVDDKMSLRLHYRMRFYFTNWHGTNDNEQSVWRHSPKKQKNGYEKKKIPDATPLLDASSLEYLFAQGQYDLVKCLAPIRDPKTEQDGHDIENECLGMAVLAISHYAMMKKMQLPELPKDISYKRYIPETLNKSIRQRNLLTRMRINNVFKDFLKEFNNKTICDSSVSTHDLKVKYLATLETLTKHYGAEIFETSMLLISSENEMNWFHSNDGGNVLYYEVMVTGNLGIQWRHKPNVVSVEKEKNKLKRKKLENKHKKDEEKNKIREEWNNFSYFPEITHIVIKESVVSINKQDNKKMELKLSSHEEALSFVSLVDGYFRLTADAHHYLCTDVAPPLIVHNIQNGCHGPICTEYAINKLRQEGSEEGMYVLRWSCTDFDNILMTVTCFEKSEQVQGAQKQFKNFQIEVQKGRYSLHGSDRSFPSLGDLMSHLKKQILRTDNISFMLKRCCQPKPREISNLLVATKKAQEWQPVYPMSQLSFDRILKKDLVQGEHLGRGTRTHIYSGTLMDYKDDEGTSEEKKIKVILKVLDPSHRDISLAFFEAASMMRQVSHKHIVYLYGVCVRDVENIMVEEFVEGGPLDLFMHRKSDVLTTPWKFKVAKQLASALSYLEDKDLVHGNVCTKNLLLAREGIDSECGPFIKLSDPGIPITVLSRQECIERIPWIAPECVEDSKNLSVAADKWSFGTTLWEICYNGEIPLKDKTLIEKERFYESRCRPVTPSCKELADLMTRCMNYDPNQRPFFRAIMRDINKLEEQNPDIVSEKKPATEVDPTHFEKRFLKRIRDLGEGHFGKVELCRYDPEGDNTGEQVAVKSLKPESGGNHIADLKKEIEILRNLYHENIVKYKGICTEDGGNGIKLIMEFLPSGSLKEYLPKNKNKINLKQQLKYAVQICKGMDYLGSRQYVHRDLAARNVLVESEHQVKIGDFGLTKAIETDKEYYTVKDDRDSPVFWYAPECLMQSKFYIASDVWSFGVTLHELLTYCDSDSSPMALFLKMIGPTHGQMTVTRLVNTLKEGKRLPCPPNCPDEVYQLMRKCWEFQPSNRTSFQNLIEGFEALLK

IC50 (JAK1) [µM]	IC50 (JAK2) [µM]	IC50 (Tyk2) [µM]	IC50 (JAK3) [µM]	Compound	further results
> 10	> 10	> 10	1.31	CC(C)=CC(=O)Nc1cccc(Cn2ncc3cnc(Nc4cnn(C)c4)nc32)c1 [Example 6, 3-Methyl-N-(3-((6-((1-methyl-1H-pyrazol-4-yl)amino)-1H-pyrazolo[3,4-d]pyrimidin-1-yl)methyl)phenyl)but-2-enamide]	–
> 10	> 10	> 10	0.005	C=CC(=O)Nc1cccc(Cn2ncc3cnc(Nc4ccn(C)n4)cc32)c1 [Example 8, N-(3-((6-((1-Methyl-1H-pyrazol-3-yl)amino)-1H-pyrazolo[4,3-c]pyridin-1-yl)methyl)phenyl)acrylamide]	–
9.42	> 10	8.08	0.003	C=CC(=O)Nc1cccc(Cn2ccc3cnc(Nc4cnn(C)c4)nc32)c1 [Example 9, N-(3-((2-((1-Methyl-1H-pyrazol-4-yl)amino)-7H-pyrrolo[2,3-d]pyrimidin-7-yl)methyl)phenyl)acrylamide]	–
5.37	> 10	5.08	0.001	C=CC(=O)Nc1cccc(Cn2ncc3cnc(Nc4cnn(C)c4)cc32)c1 [Example 10, N-(3-((6-((1-Methyl-1H-pyrazol-4-yl)amino)-1H-pyrazolo[4,3-c]pyridin-1-yl)methyl)phenyl)acrylamide]	–
–	–	–	–	COc1cc2ncnc(Nc3ccc(O)cc3)c2cc1OC [JANEX-1]	spontaneous autoimmune diabetes development [1]: prevent spontaneous autoimmune diabetes development; severity of GVHD (GVHD): attenuate the severity of GVHD
–	–	–	–	Cn1cc(Nc2ncc3cnn(Cc4cccc(NC5COC5)c4)c3n2)cn1 [Reference example 1, N-(1-methyl-1H-pyrazol-4-yl)-1-(3-(oxetan-3-ylamino)benzyl)-1H-pyrazolo[3,4-d]pyrimidin-6-amine]	IC50 ([2]; Homo sapiens, 0 h, IL-2 stimulated YT cells, 0 min (no wash), read-out: pSTAT5 inhibition pIC50, 0 min (no wash) (converted)): 1.58 µM; pSTAT5 inhibition pIC50, 0 min (no wash) [2, 4]: 5.7; pSTAT5 inhibition pIC50, 30 min after washout ([2]; IL-2 stimulated YT cells): inactive; pSTAT5 inhibition pIC50, 1 hour after washout ([2]; IL-2 stimulated YT cells): inactive; pSTAT5 inhibition pIC50, 2 hours after washout ([2]; IL-2 stimulated YT cells): inactive; pSTAT5 inhibition pIC50, 4 hours after washout ([2]; IL-2 stimulated YT cells): inactive
–	–	–	–	C[C@@H]1CCN(C(=O)CC#N)C[C@@H]1N(C)c1ncnc2[nH]ccc12 [Reference example 3, CP 690,550]	pSTAT5 inhibition pIC50, 0 min (no wash) [2, 4]: 7.6 and 7.8; pSTAT5 inhibition pIC50, 30 min after washout ([2]; IL-2 stimulated YT cells): 5.1; pSTAT5 inhibition pIC50, 1 hour after washout ([2]; IL-2 stimulated YT cells): inactive; pSTAT5 inhibition pIC50, 2 hours after washout ([2]; IL-2 stimulated YT cells): inactive; pSTAT5 inhibition pIC50, 4 hours after washout ([2]; IL-2 stimulated YT cells): Inactive; activity 30 minutes after the washing of cells ([2]; YT cells, 30 minutes after washing): significant drop in activity; inhibition activity 1 hour after washing ([2]; YT cells, 1 hour after washing): completely lost; efficacy in organ transplantation model [3]: show efficacy in an animal model of organ transplantation
